Tested on: 324938-238-R-J1-PDC complex spheroid viability
Test: Anticancer human tumor 324938-238-R-J1-PDC patient-derived bladder carcinoma cell line growth inhibition
Settings: for IC50: curve of first compound; for viability, T/C: stronger effect = lower value; active means viability on the fitted dose curve at most 10% of control; inactive means the rest
Description: Multicellular complex tumor spheroid response to LSD1 Inhibitor Iadademstat in combination with a variety of drugs and investigational agents in selected tumor cell lines
The current study was undertaken to assess response to LSD1 inhibitors in combination with standard-of-care drugs and investigational agents in solid tumor complex spheroid models as well as in the K-562 leukemia. Complex spheroids include a stromal component modeled by human endothelial cells (HUVEC) and fibroblasts modeled by human mesenchymal stem cells (MSCs). The concentration ranges selected for each drug and investigational agent were based upon clinically achievable concentrations if the clinical Cmax of the agent was known.
Compounds. The drugs and investigational agents used in this study are listed on Table 1. All of the agents used, including staurosporine (NSC755774) and gemcitabine (NSC613327), were obtained from the Developmental Therapeutics Program, NCI. FDA-approved anticancer drugs are available from the NCI at http://dtp.nci.nih.gov/branches/dscb/oncology_drugset_explanation.html. Drugs and investigational agents were >95% pure by proton nuclear magnetic resonance (NMR) and liquid chromatography/mass spectrometry (LC/MS). Stock solutions were prepared at 400x in DMSO, stored at -70 degrees C, and diluted in fresh medium prior to their use. The final concentration of DMSO in cell culture wells never exceeded 0.25% (v/v). The FDA-approved anticancer drug set is available from the Developmental Therapeutics Program at https://dtp.cancer.gov/organization/dscb/obtaining/available_plates.htm. All drugs and investigational agents were tested over a range starting from a high concentration at or near the clinical Cmax and decreasing in half-log increments. If the clinical Cmax for an agent had not been determined, the highest concentration tested was 10 microM.
Cell Lines. The patient-derived cancer cell (PDC) lines: 292921-168-R-J2-PDC, K24384-001-R-PDC, and 521955-158-R2-J5-PDC pancreatic carcinomas, 556581-035-R-J1 ovarian carcinoma, 324938-238-R-J1-PDC, 855422-203-R-J1-PDC and 883617-216-R-J1-PDC urothelial bladder carcinomas, 743489-274-T-PDC renal cell carcinoma, 138582-R-J1 Merkel cell tumor, K60290-347-R-J1 and K57222-313-R-J1-PDC glioblastomas, 653999-131-R-J2-PDC, LG0703-F948-PDC, and 349418-098-R-PDC non-small cell lung carcinomas, 885512-296-R-J2-PDC, 171881-019-R-J1-PDC breast carcinomas and 186277-243-T-J2-PDC and 233499-124-R-J2-PDC colon carcinomas were obtained from the NCI Patient-Derived Models Repository (PDMR, https://pdmr.cancer.gov). The established cell lines NCI/ADR-RES (RRID:CVCL_14520 and OVCAR-5 (RRID:CVCL_1628) ovarian carcinomas, 786-O (RRID:CVCL_1051) and A498 (RRID:CVCL_A498) renal cell carcinoma, NCI-H211 (ATCC, cat. CRL-5824; RRID:CVCL_1529), NCI-H196 (ATCC, cat. CRL-5823, RRID:CVCL_1509), SW 1271 (ATCC, cat. CRL-2177, RRID:CVCL_1716) and NCI-H1876 (ATCC, cat. CRL-5902, RRID:CVCL_1503) small cell lung carcinomas, MDA-MB-231 (RRID:CVCL_0062) and MDA-MB-468 (RRID:CVCL_0419)breast carcinomas (10-12). Pooled donor human umbilical vein endothelial cells (HUVEC, Lonza, cat. CC-2519) and human mesenchymal stem cells (hMSC, Lonza, cat. PT-2501) were purchased from Lonza (Walkersville, MD).
Cell Culture. All cells were maintained in an incubator at 37 degrees C and 5% CO2 with 95% humidity. The PDC lines were cultured according to standard operating procedures established by the NCI PDMR (https://pdmr.cancer.gov). Briefly all PDCs were thawed and cultured in Matrigel-coated flasks prepared with a working solution of 1X Ham's F-12 nutrient mix, without supplementation (Invitrogen, Waltham, MA, cat. 11765054), 100 U/mL penicillin-streptomycin (Invitrogen, cat. 15140122), and 2.5% Matrigel (Corning Inc., Corning, NY, cat. 354248) for the first three passages. […]
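Further: spheroids also contain HUVEC and human MSCs and agents combined with iadademstat; spheroids exposed to agents for 7 days before readout.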

O=C(C=Cc1cccc(S(=O)(=O)Nc2ccccc2)c1)NO + NC1CC1c1ccc(-c2cccc(O)c2)cc1
29.5 nM: IC50 (second compound 10 µM)
87.4 nM: IC50 (second compound 1 µM)
160 nM: IC50 (second compound 0.1 µM)
active: viability, T/C (second compound 0.1 µM, first compound 3 µM) 3.13% | viability, T/C (second compound 0.316 µM, first compound 3 µM) 2.23% | viability, T/C (second compound 1 µM, first compound 3 µM) 1.65% | viability, T/C (second compound 3.16 µM, first compound 3 µM) 1.52% | viability, T/C (second compound 10 µM, first compound 3 µM) 2.48%
111 nM: IC50 (second compound 0.316 µM)
inactive: viability, T/C (second compound 0.1 µM, first compound 0.00949 µM) 84.3% | viability, T/C (second compound 0.1 µM, first compound 0.03 µM) 75.3% | viability, T/C (second compound 0.1 µM, first compound 0.0949 µM) 59.1% | viability, T/C (second compound 0.1 µM, first compound 0.3 µM) 36.2% | viability, T/C (second compound 0.1 µM, first compound 0.949 µM) 24.5% | viability, T/C (second compound 0.316 µM, first compound 0.00949 µM) 69% | viability, T/C (second compound 0.316 µM, first compound 0.03 µM) 64.2% | viability, T/C (second compound 0.316 µM, first compound 0.0949 µM) 52.6% | viability, T/C (second compound 0.316 µM, first compound 0.3 µM) 34.6% | viability, T/C (second compound 0.316 µM, first compound 0.949 µM) 21.9% | viability, T/C (second compound 1 µM, first compound 0.00949 µM) 62.6% | viability, T/C (second compound 1 µM, first compound 0.03 µM) 55.4% | viability, T/C (second compound 1 µM, first compound 0.0949 µM) 50.5% | viability, T/C (second compound 1 µM, first compound 0.3 µM) 37.2% | viability, T/C (second compound 1 µM, first compound 0.949 µM) 20.1% | viability, T/C (second compound 3.16 µM, first compound 0.00949 µM) 64.2% | viability, T/C (second compound 3.16 µM, first compound 0.03 µM) 65.9% | viability, T/C (second compound 3.16 µM, first compound 0.0949 µM) 50% | viability, T/C (second compound 3.16 µM, first compound 0.3 µM) 34.4% | viability, T/C (second compound 3.16 µM, first compound 0.949 µM) 23.6% | viability, T/C (second compound 10 µM, first compound 0.00949 µM) 57.7% | viability, T/C (second compound 10 µM, first compound 0.03 µM) 47.1% | viability, T/C (second compound 10 µM, first compound 0.0949 µM) 40.1% | viability, T/C (second compound 10 µM, first compound 0.3 µM) 34.9% | viability, T/C (second compound 10 µM, first compound 0.949 µM) 24.6%
106 nM: IC50 (second compound 3.16 µM)

CC1COCCN1c1cc(C2(S(C)(=N)=O)CC2)nc(-c2ccnc3[nH]ccc23)n1 (stereo not given) + NC1CCC(NC2CC2c2ccccc2)CC1
851 nM: IC50 (second compound 0.316 µM)
546 nM: IC50 (second compound 3.16 µM)
812 nM: IC50 (second compound 1 µM)
769 nM: IC50 (second compound 10 µM)
inactive: viability, T/C (second compound 0.1 µM, first compound 0.0316 µM) 91.8% | viability, T/C (second compound 0.1 µM, first compound 0.1 µM) 78.1% | viability, T/C (second compound 0.1 µM, first compound 0.316 µM) 62.9% | viability, T/C (second compound 0.1 µM, first compound 1 µM) 48.9% | viability, T/C (second compound 0.1 µM, first compound 3.16 µM) 24.5% | viability, T/C (second compound 0.1 µM, first compound 10 µM) 13.3% | viability, T/C (second compound 0.316 µM, first compound 0.0316 µM) 93.9% | viability, T/C (second compound 0.316 µM, first compound 0.1 µM) 81.1% | viability, T/C (second compound 0.316 µM, first compound 0.316 µM) 72% | viability, T/C (second compound 0.316 µM, first compound 1 µM) 43.4% | viability, T/C (second compound 0.316 µM, first compound 3.16 µM) 30.4% | viability, T/C (second compound 0.316 µM, first compound 10 µM) 15.2% | viability, T/C (second compound 1 µM, first compound 0.0316 µM) 73.1% | viability, T/C (second compound 1 µM, first compound 0.1 µM) 77.2% | viability, T/C (second compound 1 µM, first compound 0.316 µM) 68.8% | viability, T/C (second compound 1 µM, first compound 1 µM) 43.9% | viability, T/C (second compound 1 µM, first compound 3.16 µM) 28.5% | viability, T/C (second compound 1 µM, first compound 10 µM) 16.7% | viability, T/C (second compound 3.16 µM, first compound 0.0316 µM) 68.8% | viability, T/C (second compound 3.16 µM, first compound 0.1 µM) 80% | viability, T/C (second compound 3.16 µM, first compound 0.316 µM) 57.6% | viability, T/C (second compound 3.16 µM, first compound 1 µM) 38.1% | viability, T/C (second compound 3.16 µM, first compound 3.16 µM) 25.9% | viability, T/C (second compound 3.16 µM, first compound 10 µM) 16.5% | viability, T/C (second compound 10 µM, first compound 0.0316 µM) 77.8% | viability, T/C (second compound 10 µM, first compound 0.1 µM) 85.7% | viability, T/C (second compound 10 µM, first compound 0.316 µM) 66.2% | viability, T/C (second compound 10 µM, first compound 1 µM) 43.7% | viability, T/C (second compound 10 µM, first compound 3.16 µM) 28.2% | viability, T/C (second compound 10 µM, first compound 10 µM) 16.8%
754 nM: IC50 (second compound 0.1 µM)
